Like-named read-outs stand apart in the source and are kept apart here.
Tests used:
native CB1 receptors = native CB1 receptors (Rattus norvegicus, UniProt P20272); experiment: CB1 receptor rat binding assay ([3H]SR141716A, rat brain membranes)
CB1 (mutant) = CB1 (mutant) (Homo sapiens, UniProt P21554); experiment: R-SAT functional receptor assay, CB1 (mutant, truncated after amino acid 417); assay type: cell-based; conditions: R-SAT CB1; for IC50: receptor form (mutant or wild-type) not stated; for Emax: read-out: % Inhibition
CB1 (mutant), sequence (P21554 1-417, change not shown): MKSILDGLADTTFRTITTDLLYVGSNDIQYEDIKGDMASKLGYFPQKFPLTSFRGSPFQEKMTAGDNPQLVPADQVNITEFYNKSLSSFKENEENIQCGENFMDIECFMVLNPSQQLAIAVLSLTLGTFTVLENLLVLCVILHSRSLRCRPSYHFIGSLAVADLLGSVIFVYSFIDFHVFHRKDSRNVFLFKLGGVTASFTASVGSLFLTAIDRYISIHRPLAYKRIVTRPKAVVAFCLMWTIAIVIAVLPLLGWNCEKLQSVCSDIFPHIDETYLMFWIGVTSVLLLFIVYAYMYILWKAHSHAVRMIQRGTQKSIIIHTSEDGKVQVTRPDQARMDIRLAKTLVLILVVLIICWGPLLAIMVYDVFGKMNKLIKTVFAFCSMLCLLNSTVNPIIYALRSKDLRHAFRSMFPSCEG

[1] = rat brain membranes, [3H]SR141716A, read-out: Binding rat pKi (converted)
[2] = rat brain membranes, [3H]SR141716A
[3] = Appendix A, read-out: pIC50 (converted)
[4] = Appendix A, receptor form not stated, relative to SR141716 (100%)

native CB1 receptors, sequence (P20272 whole entry, the tested form may be a part): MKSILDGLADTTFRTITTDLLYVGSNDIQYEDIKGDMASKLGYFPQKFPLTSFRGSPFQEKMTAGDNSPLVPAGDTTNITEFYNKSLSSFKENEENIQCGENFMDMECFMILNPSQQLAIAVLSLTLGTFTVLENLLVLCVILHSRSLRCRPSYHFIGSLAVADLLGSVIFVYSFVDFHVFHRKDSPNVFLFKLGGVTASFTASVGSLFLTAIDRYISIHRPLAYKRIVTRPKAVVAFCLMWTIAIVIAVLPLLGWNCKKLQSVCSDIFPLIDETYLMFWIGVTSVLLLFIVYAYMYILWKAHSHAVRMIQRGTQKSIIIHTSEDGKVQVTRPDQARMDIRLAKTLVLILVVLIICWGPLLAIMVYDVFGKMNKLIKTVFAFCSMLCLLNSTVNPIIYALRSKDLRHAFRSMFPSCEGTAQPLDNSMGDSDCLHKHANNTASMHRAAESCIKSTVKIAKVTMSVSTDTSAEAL

Structure (SMILES) | Ki (native CB1 receptors; [1]) [nM] | IC50 (CB1 (mutant); [3]) [nM] | Emax (CB1 (mutant); [4]) [%] | other results
O=C(NCc1ccc(F)cc1)c1ccc2c(c1)N=C(c1ccc(Cl)cc1)c1ccccc1S2 [drawing 1287] | 2 |  |  | 
O=C(NC1CCCC1)c1ccc2c(c1)N=C(c1cccc(F)c1)c1ccccc1S2 [drawing 1310] | 25.1 |  |  | Binding rat Inh % (native CB1 receptors; [2]): 82%
O=C(NCCc1ccc(Cl)cc1)c1ccc2c(c1)N=C(N1CCC(F)(F)CC1)c1ccccc1S2 [drawing 1492] | 63.1 |  |  | 
O=C(NCc1ccc(F)cc1)c1ccc2c(c1)N=C(c1ccccc1)c1ccccc1S2 [drawing 1352] | 3.98 |  |  | 
O=C(NNCc1ccccc1)c1ccc2c(c1)N=C(c1cccc(Br)c1)c1ccccc1S2 [drawing 1505] | 79.4 |  |  | Binding rat Inh % (native CB1 receptors; [2]): 66%
O=C(NCc1ccccc1Br)c1ccc2c(c1)N=C(N1CCCCC1)c1ccccc1S2 [drawing 1275] | 20 |  |  | 
O=C(NCc1ccccc1)c1ccc2c(c1)N=C(c1ccc(Cl)cc1)c1ccccc1S2 [drawing 1368] | 5.01 |  |  | 
CC(CNC(=O)c1ccc2c(c1)N=C(c1ccc(Cl)cc1)c1cc(F)ccc1S2)c1ccccc1 (stereo not drawn) [drawing 1524] | 10 |  |  | 
O=C(NCCc1ccccc1)c1ccc2c(c1)N=C(c1ccc(F)cc1)c1ccccc1S2 [drawing 1335] | 3.98 |  |  | 
CCCCNC(=O)c1cnc2c(n1)N=C(c1ccccc1)c1ccccc1S2 [drawing 1534] | 12.6 |  |  | Binding rat Inh % (native CB1 receptors; [2]): 88%
O=C(NCc1ccco1)c1ccc2c(c1)N=C(c1ccc(Cl)cc1)c1ccccc1S2 [drawing 1369] | 5.01 |  |  | Binding rat Inh % (native CB1 receptors; [2]): 93%
O=C(NN1CCCCC1)c1ccc2c(c1)N=C(N1CCCCC1)c1ccccc1S2 [drawing 1397] | 39.8 |  |  | 
O=C(NCc1ccc(F)cc1)c1ccc2c(c1)N=C(C1CCCCC1)c1ccccc1S2(=O)=O [drawing 1326] | 25.1 |  |  | 
CC(C)CNC(=O)c1ccc2c(c1)N=C(c1ccc(F)cn1)c1ccccc1S2 [drawing 1254] | 15.8 |  |  | Binding rat Inh % (native CB1 receptors; [2]): 97%
CC(NC(=O)c1ccc2c(c1)N=C(c1ccccc1)c1ccccc1S2)c1ccccc1 (stereo not drawn) [drawing 1379] | 31.6 |  |  | 
CC(C)CCNC(=O)c1ccc2c(c1)N=C(c1ccccc1Cl)c1ccccc1S2 [drawing 1188] | 12.6 |  |  | Binding rat Inh % (native CB1 receptors; [2]): 116%
O=C(NNC(=O)c1ccc2c(c1)N=C(c1ccc(F)cc1)c1ccccc1S2)c1ccccc1 [drawing 1519] | 79.4 |  |  | Binding rat Inh % (native CB1 receptors; [2]): 79%
CCCC1=Nc2cc(C(=O)NCc3ccccc3Cl)ccc2Sc2ccccc21 [drawing 1427] | 39.8 |  |  | 
Cc1cccc(C2=Nc3cc(C(=O)NC4CCC(F)(F)CC4)ccc3Sc3ccccc32)n1 [drawing 1425] | 6.31 |  |  | Binding rat Inh % (native CB1 receptors; [2]): 90%
CCCC1=Nc2cc(C(=O)NCCc3ccc(Cl)cc3)ccc2Sc2ccccc21 [drawing 1285] | 20 |  |  | 
CCCCNC(=O)c1ccc2c(c1)N=C(c1ccc(Cl)s1)c1cc(Cl)ccc1S2 [drawing 1426] | 6.31 |  |  | Binding rat Inh % (native CB1 receptors; [2]): 85%
CC(NC(=O)c1ccc2c(c1)N=C(C1CCCCC1)c1ccccc1S2)c1ccccc1 (stereo not drawn) [drawing 1431] | 6.31 |  |  | 
Cc1csc(CNC(=O)c2ccc3c(c2)N=C(c2ccc(Cl)s2)c2ccccc2S3)c1 [drawing 1232] | 0.794 |  |  | Binding rat Inh % (native CB1 receptors; [2]): 90%
C[C@@H]1CCC[C@H](C)N1NC(=O)c1ccc2c(c1)N=C(c1ccccc1F)c1ccccc1S2 [drawing 1495] | 63.1 |  |  | Binding rat Inh % (native CB1 receptors; [2]): 78%

Structure (SMILES) | Ki (native CB1 receptors; [1]) [nM] | IC50 (CB1 (mutant); [3]) [nM] | Emax (CB1 (mutant); [4]) [%] | other results
O=C(NN1CCCCC1)c1ccc2c(c1)N=C(C1CCCCC1)c1ccccc1O2 |  |  |  | Ki (native CB1 receptors): 63.1 nM
CC(C)CNC(=O)c1ccc2c(c1)N=C(c1ccc(F)cc1)c1ccccc1S2 [drawing 1319] | 3.16 |  |  | Binding rat Inh % (native CB1 receptors; [2]): 87%
O=C(NN1CCCCC1)c1ccc2c(c1)N=C(c1ccc(F)cn1)c1ccccc1S2 [drawing 660] |  | 63.1 | 92 | 
CCCC1=Nc2cc(C(=O)NC(C)CC)ccc2Sc2ccccc21 (stereo not drawn) |  | 100 | 105 | 
CCCC1=Nc2cc(C(=O)N3CCN(c4cccc(C(F)(F)F)c4)CC3)ccc2Sc2ccccc21 |  | 251 | 91 | 
CCCC1=Nc2cc(C(=O)N3CCN(c4cc(C)ccc4C)CC3)ccc2Sc2ccccc21 |  | 158 | 90 | 
CCCNC(=O)c1ccc2c(c1)N=C(c1ccc(Cl)cc1)c1ccccc1S2 [drawing 969] |  | 20 |  | % Inhibition (CB1 (mutant); [4]): 105%
COc1ccccc1C1=Nc2cc(C(=O)NCCC(C)C)ccc2Sc2ccccc21 |  |  | 91 | 
CC(CNC(=O)c1ccc2c(c1)N=C(C1CCCCC1)c1ccccc1S2)c1ccccc1 (stereo not drawn) [drawing 783] |  | 10 | 100 | 
CCCC1=Nc2cc(C(=O)NCCN(CC(C)C)CC(C)C)ccc2Sc2ccccc21 |  | 63.1 | 105 | 
O=C(NCCc1ccccc1)c1ccc2c(c1)N=C(c1ccc(F)cc1)c1ccccc1S2 [drawing 839] |  | 12.6 | 103 | 
CCCNC(=O)c1ccc2c(c1)N=C(c1ccc(F)cc1)c1ccccc1S2 [drawing 841] |  | 12.6 | 95 | 
O=C(NCCc1ccccn1)c1ccc2c(c1)N=C(c1cccc(F)c1)c1ccccc1S2 |  | 50.1 | 91 | 
CCCCNC(=O)c1ccc2c(c1)N=C(C#C[Si](C)(C)C)c1ccccc1S2 |  | 631 | 64 | 
O=C(NC1CCC(F)(F)CC1)c1ccc2c(c1)N=C(c1ccc(F)cc1)c1ccccc1S2 [drawing 821] |  | 12.6 | 91 | 
O=C(NNC(=O)c1ccc2c(c1)N=C(c1ccc(Br)cc1)c1ccccc1S2)c1ccccc1 |  | 251 | 88 | 
O=C(NN1CCCCC1)c1ccc2c(c1)N=C(c1cccc(Br)c1)c1ccccc1S2 [drawing 723] |  |  | 92 | IC50 (CB1 (mutant); pIC50, Appendix A): 7.94 nM
CCCC1=Nc2cc(C(=O)N3CCC(C(=O)OCC)CC3)ccc2Sc2ccccc21 |  | 200 | 108 | 
CCCCNC(=O)c1ccc2c(c1)N=C(c1sccc1C)c1ccccc1S2 [drawing 881] |  |  | 91 | IC50 (CB1 (mutant); pIC50, Appendix A): 15.8 nM
O=C(NCc1ccco1)c1ccc2c(c1)N=C(c1ccc(Cl)cc1)c1ccccc1S2 [drawing 753] |  | 7.94 | 94 | 
CCCC1=Nc2cc(C(=O)NCc3ccc(OC)cc3)ccc2Sc2ccccc21 |  |  | 96 | IC50 (CB1 (mutant); pIC50, Appendix A): 25.1 nM
O=C(NCc1ccncc1)c1ccc2c(c1)N=C(c1cccc(F)c1)c1ccccc1S2 |  | 50.1 | 95 | 
CC(C)NC(=O)c1ccc2c(c1)N=C(c1cccc(F)c1)c1ccccc1S2 [drawing 1155] |  | 39.8 | 104 | 
CC(C)CNC(=O)c1ccc2c(c1)N=C(c1cccc(F)c1)c1ccccc1S2 [drawing 629] |  | 5.01 | 112 | 

Structure (SMILES) | Ki (native CB1 receptors; [1]) [nM] | IC50 (CB1 (mutant); [3]) [nM] | Emax (CB1 (mutant); [4]) [%] | other results
O=C(NC1CCCCC1)c1ccc2c(c1)N=C(c1ccc(F)cc1)c1ccccc1S2 [drawing 1065] |  | 31.6 | 111 | 
CC(C)CNC(=O)c1ccc2c(c1)N=C(c1ccc(Cl)cc1)c1ccccc1S2 [drawing 741] |  |  | 123 | IC50 (CB1 (mutant); pIC50, Appendix A): 7.94 nM
O=C(NN1CCCCC1)c1ccc2c(c1)N=C(Nc1ccccc1)c1ccccc1S2 |  | 2000 | 92 | 
CCCC1=Nc2cc(C(=O)NCCCN3CC(C)CC(C)C3)ccc2Sc2ccccc21 (stereo not drawn) |  | 631 | 136 | 
CCCC1=Nc2cc(C(=O)NCc3ccccc3Cl)ccc2Sc2ccccc21 [drawing 791] |  | 10 | 105 | 
Cc1ccsc1C1=Nc2cc(C(=O)NCc3ccncc3)ccc2Sc2ccccc21 |  | 158 | 92 | 
Clc1ccc(C2=Nc3cc(-c4ncc[nH]4)ccc3Sc3ccccc32)cc1 [drawing 846] |  | 158 | 109 | 
CCCCNC(=O)c1ccc2c(c1)N=C(c1ccc(Cl)s1)c1ccc(F)cc1S2 [drawing 1010] |  | 501 | 101 | 
CCCNC(=O)c1ccc2c(c1)N=C(c1ccc(Cl)cc1)c1ccccc1S2 [drawing 799] |  | 10 | 103 | 
O=C(NC1CCCCC1)c1ccc2c(c1)N=C(c1ccccn1)c1ccccc1S2 [drawing 598] |  |  | 112 | IC50 (CB1 (mutant); pIC50, Appendix A): 50.1 nM
CCCCN(C)C(=O)c1ccc2c(c1)N=C(c1ccc(Cl)s1)c1ccccc1S2 |  | 100 | 87 | 
Cc1ccsc1C1=Nc2cc(C(=O)NCc3ccco3)ccc2Sc2ccccc21 [drawing 855] |  | 12.6 | 100 | 
Cc1cccnc1C1=Nc2cc(C(=O)NCc3cccnc3)ccc2Sc2ccccc21 |  | > 126 | 39 | 
O=C(NCc1cccnc1)c1ccc2c(c1)N=C(c1ccc(Br)cc1)c1ccccc1S2 [drawing 1007] |  | 25.1 | 106 | 
O=C(NCCc1ccncc1)c1ccc2c(c1)N=C(c1cccc(F)c1)c1ccccc1S2 [drawing 1097] |  |  | 106 | IC50 (CB1 (mutant); pIC50, Appendix A): 31.6 nM
O=C(NCCc1ccc(Cl)cc1)c1ccc2c(c1)N=C(C1CCCCC1)c1ccccc1S2 [drawing 889] |  | 15.8 | 104 | 
O=C(NCc1cccs1)c1ccc2c(c1)N=C(c1ccccn1)c1ccccc1S2 [drawing 1037] |  | 25.1 | 118 | 
O=C(NNC(=O)c1ccc2c(c1)N=C(c1ccc(Cl)cc1)c1ccccc1S2)c1ccccc1 |  | 398 | 71 | 
O=C(NCc1ccco1)c1ccc2c(c1)N=C(c1ccccc1Cl)c1ccccc1S2 |  |  | 95 | 
CC(C)NC(=O)c1ccc2c(c1)N=C(c1ccc(Cl)s1)c1ccccc1S2 [drawing 550] |  | 39.8 | 78 | 
O=C(NC1CCCC1)c1ccc2c(c1)N=C(c1ccccc1F)c1ccccc1S2 |  | 398 | 79 | 
CC(C)CNC(=O)c1ccc2c(c1)N=C(c1ccc(F)cc1)c1ccccc1S2 [drawing 677] |  | 6.31 | 107 | 
CC(C)CCNC(=O)c1ccc2c(c1)N=C(c1cccc(F)c1)c1ccccc1S2 [drawing 671] |  |  | 100 | IC50 (CB1 (mutant); pIC50, Appendix A): 6.31 nM

From patent US20080090805A1, “CB-1 MODULATING COMPOUNDS AND THEIR USE” (ACADIA PHARMACEUTICALS INC., priority 2005, published 2008)
